From patent US20190375778A1, “ADENOSINE DERIVATIVES FOR USE IN THE TREATMENT OF CANCER” (NuCana plc, priority 2016, published 2019)
pIC50: −log10 of the molar value.

Key:
[1] = test system: MCF7; assay: CellTiterGlo viability assay, MCF7; format: cell-based; conditions: Homo sapiens, MCF7, 72 h, read-out: IC50 MCF7
Description: (§1) In vitro viability assay were performed to assess the effects of compounds on cell viability in selected cell lines over ˜72 hrs using the CellTiterGlo (CTG, Promega-G7573) assay. The tests were performed in duplicates with treatment of compounds at 9 points, 3.16 folds titration in 96 well plates over ˜72 hrs. The compound starting concentrations were 198 μM. Cell viability assay using CellTiterGlo in 96-well plate were performed. Compound treatment 72 hrs, standard growth conditions, duplicates. Compounds were dissolved to 40 mM with thawed […]. Compounds were serially diluted at 3.16 fold in thawed DMSO, and warmed to 37° C. before being dissolved in media (2 μl+200 μl). After compounds were dissolved in media, media containing compounds were warmed to 37° C. in incubator and then compounds in media were added to cell plates (50 μl+50 μl) in duplicates. The compounds' final concentrations were from […] to 19.9 nM. All compound solubilities were checked and recorded again, then the plates were transferred to CO2 tissue culture incubator immediately and incubated for 3 days. DMSO final concentration is 0.5%.

[2] = test system: HL-60; assay: CellTiterGlo viability assay, HL-60; format: cell-based; conditions: Homo sapiens, HL-60, 72 h, read-out: IC50 HL-60
In short: (§2)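 Each cell line treated ~72 h under standard growth conditions, in duplicate, with 9-point 3.16-fold titrations; final concentrations from 198 μM down to 19.9 nM, 0.5% DMSO. Viability read by CellTiterGlo luminescence.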

[3] = test system: RPMI-8226; assay: CellTiterGlo viability assay, RPMI-8226; format: cell-based, Human; conditions: Homo sapiens, RPMI-8226, 72 h, read-out: IC50 RPMI-8226
In short: as §2

[4] = test system: NCI-H929; assay: CellTiterGlo viability assay, NCI-H929; format: cell-based; conditions: Homo sapiens, NCI-H929, 72 h, read-out: IC50 NCI-H929
In short: as §2

[5] = test system: K562; assay: CellTiterGlo viability assay, K562; format: cell-based; conditions: Homo sapiens, K562, 72 h, read-out: IC50 K562
In short: as §2

[6] = test system: KG1a leukaemic stem cell compartment (Lin−/CD34+/CD38−/CD123+); assay: Leukaemic stem cell compartment in KG1a; format: cell-based; conditions: LSC as percentage of viable cells left, 72 hrs
[7] = test system: Jurkat; assay: CellTiterGlo viability assay, Jurkat; format: cell-based; conditions: Homo sapiens, 72 h, read-out: IC50 Jurkat
Description: as §1

[8] = test system: Z138; assay: CellTiterGlo viability assay, Z138; format: cell-based; conditions: Homo sapiens, Z-138, 72 h, read-out: IC50 Z138
Description: as §1

[9] = test system: THP-1; assay: CellTiterGlo viability assay, THP-1; format: cell-based; conditions: Homo sapiens, THP-1, 72 h, read-out: IC50 THP-1
Description: as §1

[10] = test system: HS445; assay: CellTiterGlo viability assay, HS445; format: cell-based; conditions: Hs 445, 72 h, read-out: IC50 HS445
Description: as §1

[11] = test system: HEL92.1.7; assay: CellTiterGlo viability assay, HEL92.1.7; format: cell-based; conditions: Homo sapiens, HEL 92.1.7, 72 h, read-out: IC50 HEL92.1.7
In short: as §2

[12] = test system: KG-1; assay: CellTiterGlo viability assay, KG-1; format: cell-based; conditions: Homo sapiens, KG-1, 72 h, read-out: IC50 KG-1
In short: as §2

**Q.** `C[C@H](NP(=O)(OC[C@H]1O[C@@H](n2c(Cl)nc3c(N)ncnc32)[C@H](O)[C@@H]1O)Oc1ccccc1)C(=O)OCc1ccccc1` (mixture of isomers) [C, (2S)-Benzyl 2-(((((2R,3S,4R,5R)-5-(6-amino-8-chloro-9H-purin-9-yl)-3,4-dihydroxy-tetrahydrofuran-2-yl)methoxy)(phenoxy)phosphoryl)amino)propanoate] was tested. Which pIC50 [1] did it give?
**A.** The pIC50 was 4.00 to 4.82.

**Q.** And the pIC50 [2]?
**A.** The pIC50 was 4.82 to 5.30.

**Q.** And the pIC50 [3]?
**A.** Its pIC50 is 4.82 to 5.30.

**Q.** What about the pIC50 [4] of the same molecule?
**A.** Its pIC50 is 4.82 to 5.30.

**Q.** What about the pIC50 [5] of the same molecule?
**A.** The pIC50 was 4.00 to 4.82.

**Q.** And the “KG-1a (CD34+/CD38−/CD123+) % compartment” value [6]?
**A.** The value was 3.3%.

**Q.** What about the pIC50 [7] of the same molecule?
**A.** The pIC50 was 4.00 to 4.82.

**Q.** And the pIC50 [8]?
**A.** The pIC50 was 5.30 to 7.00.

**Q.** And the pIC50 [9]?
**A.** Its pIC50 is 4.00 to 4.82.

**Q.** And the pIC50 [10]?
**A.** Its pIC50 is under 4.00.

**Q.** And the pIC50 [11]?
**A.** The pIC50 was 4.00 to 4.82.

**Q.** What about the pIC50 [12] of the same molecule?
**A.** The pIC50 was under 4.00.
